The test system of one test is PAC-1 receptor. Put plainly: PAC-1 receptor expression (qPCR) in head kidney leukocytes treated with poly I:C. The class given is cell-based, rainbow trout (O. mykiss). As to conditions: poly I:C 30 μg/mL, 4, 24 and 48 hours. The method, then:
Juvenile rainbow trout (O. mykiss) was used from 9 to 12 grams and 7 months of age, VHSV and IPNV free. Fish were maintained at 14° C. with water circulation. Food was administered twice a day ad libitum. The virus, VHSV (strain 0771) and IPNV (strain Sp) were propagated in the rainbow trout gonad cell line RTG-2 (Sena and Rio (1975) Infect Immun 11:815-22). Cells were grown in minimal essential medium (MEM, Invitrogen, USA) supplemented with 10% of fetal calf serum (FCS, Invitrogen) containing 100 IU/mL of penicillin and 100 μg/mL of streptomycin. The viruses were inoculated into RTG-2 cells grown in MEM with antibiotics and 2% FCS at 14° C. […] The viral titers were determined in 96-well plates as reported by Reed and Muench (Reed and Muench ([…]) J Hyg 27:280-9). […]
Finally, total RNA was purified from leukocytes cultures using the method described by Chomczynski and Sacchi (Chomczynski and Sacchi (1987) Anal. Biochem. 162:156-9) to evaluate the expression levels of the PAC-1 receptor on leukocytes untreated and treated with Poly I:C or infected with viruses. […] For quantitative PCR reactions (qPCR) was used a mixture of PCR from commercial sources: Power SYBR Green PCR Master Mix (Applied Biosystems). […] The results were expressed as 2^−ΔCt, where ΔCt is equal to the remainder of the gene Ct value minus the assessed value of Ct normalizer gene (EF 1α).
(In general: Quantitative PCR measures a nucleic acid by following its amplification.)

Another test concerns VPAC-1 receptor. Put plainly: VPAC-1 receptor expression (qPCR) in anterior kidney leukocytes treated with poly I:C. The class given is cell-based, rainbow trout (Oncorhynchus mykiss). As to conditions: cultured leukocytes, poly I:C, 4, 24 and 48 hours.

As for poly I:C, the “levels of PAC-1 expression relative to EF1α” value with PAC-1 receptor is recorded as “over-expressed”. Besides, the “levels of VPAC-1 expression relative to EF1α” value with VPAC-1 receptor is recorded as “over-expressed”.

The values above are taken from patent US9603900B2, “Use of PACAP for the treatment of viral infections in aquatic organisms” (Centro de Ingenieria Genetica y Biotecnologia, priority 2010, dated 2017).
